In paper doi:10.1101/2025.10.03.680348v2, “Cathepsin K as a Key Protease in Processing of SARS-CoV-2 Spike Activation Sites and a Target of Dual-Inhibition” (biorxiv, 2025):

How the values were obtained:
[1] = target: T1, hCatL (human Cathepsin L) (Homo sapiens, UniProt P07711); test: fluorogenic inhibition assay, Z-FR-AMC ([…]); assay type: biochemical; details: 0.1 M sodium acetate pH 5.5, 2.5 mM DTT, 2.5 mM EDTA, room temperature
T1 construct: gene CTSL; native enzyme from human liver, commercial (Fisher Scientific)
T1 sequence (P07711 114-288): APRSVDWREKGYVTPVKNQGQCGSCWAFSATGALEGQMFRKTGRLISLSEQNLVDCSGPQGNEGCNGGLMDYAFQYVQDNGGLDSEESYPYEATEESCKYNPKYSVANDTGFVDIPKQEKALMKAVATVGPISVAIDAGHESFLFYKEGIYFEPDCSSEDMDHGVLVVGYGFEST
T1 sequence (P07711 292-333): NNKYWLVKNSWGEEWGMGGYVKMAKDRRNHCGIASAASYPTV

[2] = target: T2, hCatB (Human Cathepsin B) (Homo sapiens, UniProt P07858); test: fluorogenic inhibition assay, Z-FR-AMC ([…]); assay type: biochemical; details: 0.1 M sodium acetate pH 5.5, 2.5 mM DTT, 2.5 mM EDTA, room temperature
T2 construct: gene CTSB; recombinant human enzyme, gift of J. Mort

CC(C)(C)[C@H](NC(=O)C(F)(F)F)C(=O)N1C[C@H]2[C@@H]([C@H]1C(=O)N[C@H](C#N)C[C@@H]1CCNC1=O)C2(C)C [Nirmatrelvir]
not inhibited by 10 μM [1]: > 10 µM
not inhibited by 10 μM [2]: > 10 µM
